Reference: patent publication US20230082989A1, “DEVICES AND METHODS FOR TREATING CANCER AND CARDIAC WASTING” (Nazzano Devices Limited, priority 2020, published 2023)
Like-named read-outs stand apart in the source and are kept apart here. Where no end group is shown, it is not given here.

Tests used:
[1] = system: advanced cancer patients; assay: Self-rated health / EQ5D5L index in advanced cancer patients receiving heart failure drugs, case series; type: in vivo, human; conditions: for Self-rated health: 1=very good, 5=very poor; for Symptom status, EQ5D5L Index: 1 best possible, 0 worst possible
Experimental: (§1) In some cases, SGLT2 inhibitors, Dapagliflozin or Empagliflozin can be used for treatment of type 2 diabetes, heart failure, or a combination thereof. Disclosed herein are methods comprising administering these drugs to advanced cancer patients to improve a heart muscle in these patients. We here describe 5 advanced cancer patients, who were treated with either an SGLT2 inhibitor, an ACE inhibitor, a beta-blocker or an Angiotensin receptor blocker, all of which are shown to be effective heart failure therapies.

[2] = system: advanced cancer patients; assay: Hand grip strength, 4 meter walk and 6-minute walk test in advanced cancer patients receiving heart failure drugs, case series; type: in vivo, human
Experimental: as §1

[3] = system: advanced cancer patients; assay: 24 h ECG recording (mean heart rate, SDNN, NSVT) in advanced cancer patients receiving heart failure drugs, case series; type: in vivo, human
Experimental: as §1

[4] = system: advanced cancer patients; assay: Echocardiogram (LVEF, LV mass) in advanced cancer patients receiving heart failure drugs, case series; type: in vivo, human
Experimental: as §1

[5] = system: advanced cancer patients; assay: Survival follow-up of advanced cancer patients receiving heart failure drugs, case series; type: in vivo, human
[6] = system: advanced cancer patients; assay: Interpretation of case reports: protection from heart muscle wasting, NSVT and early death; type: in vivo, human
[7] = system: patients with advanced cancer; conditions: cited from earlier work
[8] = Case 6: Colorectal Cancer UICC stage 4, Candesartan 16 mg and Dapagliflozin 10 mg with co-medication
[9] = Case 9: Lung Cancer UICC stage 4, Candesartan 32 mg and Metoprolol 95 mg with co-medication
[10] = Case 12: Multiple Myeloma stage 3, Spironolactone 25 mg, Candesartan 32 mg and Candesartan 8 mg listed, with co-medication
[11] = Case 13: Lung cancer UICC stage 4B, Spironolactone 25 mg and Candesartan 32 mg with co-medication
[12] = Case 7: lymphoma Ann Arbor Stage 2A, Empagliflozin 10 mg with co-medication
[13] = Case 8: Pancreas Cancer UICC stage 4, Nebivolol 7.5 mg with co-medication
[14] = Case 10: Lymphoma Ann Arbor stage 4 E, Ramipril 2.5 mg with co-medication
[15] = Case 11: Lymphoma Ann Arbor stage 4 E, Ramipril 10 mg with co-medication
[16] = Case 14: Breast Cancer UICC stage 4, Spironolactone 25 mg with co-medication
[17] = Case A: pancreatic cancer metastasized to liver, Gemcitabine, pre-study vs post-study
[18] = Case B: gastrointestinal cancer metastasized to liver, Capecitabine
[19] = Case C: advanced mesothelioma, FOLFIRI
[20] = Case D: head & neck cancer metastasized to lungs, Cetuximab, pre-study vs post-study

Q: What does the source list for `CCOc1nc2cccc(C(=O)O)c2n1Cc1ccc(-c2ccccc2-c2nnn[nH]2)cc1` [Candesartan]?
A: Self-rated health [1, 8]: 4; Self-rated health [1, 9]: 2; Symptom status, EQ5D5L Index [1, 10]: 0.887; Distance in 6-minute walk test [2, 8]: 504 meters; Hand grip strength [2, 8]: 46 kg; Distance walked in 6 minutes [2, 9]: 440 meters; Hand grip muscle strength [2, 9]: 43 kg; Distance walked in 6 minutes [2, 10]: 527 meters; Hand grip muscle strength [2, 10]: 47 kg; Time to walk 4 meters [2, 10]: 2.5 s; Hand grip muscle strength [2, 11]: 40 kg; Heart rate variability SDNN (24 h ECG) [3, 8]: 160 ms; Mean heart rate (24 h ECG) [3, 8]: 70 beats per minute; Heart rate variability SDNN (24 h ECG) [3, 10]: 112 ms; Mean heart rate (24 h ECG) [3, 10]: 69 beats per minute; Heart rate variability SDNN (24 h ECG) [3, 11]: 101 ms; LV mass (echocardiogram) [4, 8]: 247 gram; LVEF (echocardiogram) [4, 8]: 68%; LV mass (echocardiogram) [4, 9]: 326 gram; LVEF (echocardiogram) [4, 9]: 67%; LV mass (echocardiogram) [4, 11]: 148 gram; LVEF (echocardiogram) [4, 11]: 66%

Q: What does the source list for `CCOc1ccc(Cc2cc([C@@H]3O[C@H](CO)[C@@H](O)[C@H](O)[C@H]3O)ccc2Cl)cc1` [Dapagliflozin]?
A: Self-rated health [1, 8]: 4; Distance in 6-minute walk test [2, 8]: 504 meters; Hand grip strength [2, 8]: 46 kg; Heart rate variability SDNN (24 h ECG) [3, 8]: 160 ms; Mean heart rate (24 h ECG) [3, 8]: 70 beats per minute; LV mass (echocardiogram) [4, 8]: 247 gram; LVEF (echocardiogram) [4, 8]: 68%

Q: Which Self-rated health [1, 12] does the source give for `OC[C@H]1O[C@@H](c2ccc(Cl)c(Cc3ccc(O[C@H]4CCOC4)cc3)c2)[C@H](O)[C@@H](O)[C@@H]1O` [Empagliflozin] here?
A: 2

Q: And the Hand grip strength [2, 12]?
A: 46

Q: And the “Time to walk 4 meters” value [2, 12]?
A: 3.5 s

Q: And the “Survival (still alive after)” value [5, 12]?
A: > 324 days

Q: And the “Heart rate variability SDNN (24 h ECG)” value [3, 12]?
A: 224 ms

Q: What about the “Mean heart rate (24 h ECG)” value [3, 12] of the same molecule?
A: 84 beats per minute

Q: What about the “Non-sustained ventricular tachycardia (24 h ECG)” value [3, 12] of the same molecule?
A: no non-sustained ventricular tachycardia

Q: And the “Interpretation of the case” value [6, 12]?
A: protected from heart muscle wasting, life-threatening non-sustained ventricular tachycardia and early death

Q: And the “LV mass (echocardiogram)” value [4, 12]?
A: 365 gram

Q: What about the “LVEF (echocardiogram)” value [4, 12] of the same molecule?
A: 64%

Q: What does the source list for `COCCc1ccc(OCC(O)CNC(C)C)cc1` (stereo not shown) [Metoprolol]?
A: Self-rated health [1, 9]: 2; Distance walked in 6 minutes [2, 9]: 440 meters; Hand grip muscle strength [2, 9]: 43 kg; Non-sustained ventricular tachycardia (24 h ECG) [3, 9]: no non-sustained ventricular tachycardia; Interpretation of the case [6, 9]: protected from heart muscle wasting, life-threatening non-sustained ventricular tachycardia and early death; LV mass (echocardiogram) [4, 9]: 326 gram; LVEF (echocardiogram) [4, 9]: 67%

Q: What does the source list for `OC(CNCC(O)C1CCc2cc(F)ccc2O1)C1CCc2cc(F)ccc2O1` (stereo not shown) [Nebivolol]?
A: Self-rated health [1, 13]: 3; Hand grip muscle strength [2, 13]: 27 kg; Time to walk 4 meters [2, 13]: 4.6 s; Survival (still alive after) [5, 13]: > 337 days; Heart rate variability SDNN (24 h ECG) [3, 13]: 124 ms; Mean heart rate (24 h ECG) [3, 13]: 62 beats per minute; Non-sustained ventricular tachycardia (24 h ECG) [3, 13]: no non-sustained ventricular tachycardia; Interpretation of the case [6, 13]: protected from heart muscle wasting, life-threatening non-sustained ventricular tachycardia and early death; LV mass (echocardiogram) [4, 13]: 236 gram; LVEF (echocardiogram) [4, 13]: 65%

Q: For `CCOC(=O)[C@H](CCc1ccccc1)N[C@@H](C)C(=O)N1[C@H](C(=O)O)C[C@@H]2CCC[C@@H]21` [Ramipril], which Self-rated health [1, 14] is on record?
A: 3

Q: And the “Symptom status, EQ5D5L Index” value [1, 15]?
A: 0.999

Q: And the “Distance walked in 6 minutes” value [2, 14]?
A: 440 meters

Q: And the “Hand grip muscle strength” value [2, 14]?
A: 29 kg

Q: What about the “Time to walk 4 meters” value [2, 14] of the same molecule?
A: 3.5 s

Q: And the “Hand grip muscle strength” value [2, 15]?
A: 47 kg

Q: What about the “Survival (still alive after)” value [5, 14] of the same molecule?
A: > 458 days

Q: And the “Survival (still alive after)” value [5, 15]?
A: > 666 days

Q: What about the “Heart rate variability SDNN (24 h ECG)” value [3, 14] of the same molecule?
A: 95 ms

Q: And the “Mean heart rate (24 h ECG)” value [3, 14]?
A: 64 beats per minute

Q: And the “Non-sustained ventricular tachycardia (24 h ECG)” value [3, 14]?
A: no non-sustained ventricular tachycardia

Q: And the “Heart rate variability SDNN (24 h ECG)” value [3, 15]?
A: 120 ms

Q: What about the “Mean heart rate (24 h ECG)” value [3, 15] of the same molecule?
A: 77 beats per minute

Q: And the “Non-sustained ventricular tachycardia (24 h ECG)” value [3, 15]?
A: no non-sustained ventricular tachycardia

Q: And the “Interpretation of the case” value [6, 14]?
A: protected from heart muscle wasting, life-threatening non-sustained ventricular tachycardia and early death

Q: And the “Interpretation of the case” value [6, 15]?
A: protected from heart muscle wasting, life-threatening non-sustained ventricular tachycardia and early death

Q: And the “LV mass (echocardiogram)” value [4, 14]?
A: 189 gram

Q: And the “LVEF (echocardiogram)” value [4, 14]?
A: 63%

Q: What about the “LV mass (echocardiogram)” value [4, 15] of the same molecule?
A: 227 gram

Q: What about the “LVEF (echocardiogram)” value [4, 15] of the same molecule?
A: 67%

Q: For `CC(=O)S[C@@H]1CC2=CC(=O)CC[C@]2(C)[C@H]2CC[C@@]3(C)[C@@H](CC[C@@]34CCC(=O)O4)[C@H]12` [Spironolactone], which “Symptom status, EQ5D5L Index” value [1, 10] is on record?
A: 0.887

Q: And the “Distance walked in 6 minutes” value [2, 10]?
A: 527 meters

Q: What about the “Hand grip muscle strength” value [2, 10] of the same molecule?
A: 47 kg

Q: And the “Time to walk 4 meters” value [2, 10]?
A: 2.5 s

Q: And the “Hand grip muscle strength” value [2, 11]?
A: 40 kg

Q: What about the “Hand grip muscle strength” value [2, 16] of the same molecule?
A: 40 kg

Q: And the “Survival (still alive after)” value [5, 16]?
A: > 235 days

Q: And the “Heart rate variability SDNN (24 h ECG)” value [3, 10]?
A: 112 ms

Q: And the “Mean heart rate (24 h ECG)” value [3, 10]?
A: 69 beats per minute

Q: And the “Non-sustained ventricular tachycardia (24 h ECG)” value [3, 10]?
A: no non-sustained ventricular tachycardia

Q: And the “Heart rate variability SDNN (24 h ECG)” value [3, 11]?
A: 101 ms

Q: And the “Non-sustained ventricular tachycardia (24 h ECG)” value [3, 11]?
A: no non-sustained ventricular tachycardia

Q: And the “Average heart rate (24 h ECG)” value [3, 16]?
A: 85 bpm

Q: What about the “Heart rate variability SDNN (24 h ECG)” value [3, 16] of the same molecule?
A: 142 ms

Q: What about the “Non-sustained ventricular tachycardia (24 h ECG)” value [3, 16] of the same molecule?
A: no non-sustained ventricular tachycardia

Q: What about the “Interpretation of the case” value [6, 11] of the same molecule?
A: protected from heart muscle wasting, life-threatening non-sustained ventricular tachycardia and early death

Q: What about the “Interpretation of the case” value [6, 16] of the same molecule?
A: protected from heart muscle wasting, life-threatening non-sustained ventricular tachycardia and early death

Q: And the “LV mass (echocardiogram)” value [4, 11]?
A: 148 gram

Q: What about the “LVEF (echocardiogram)” value [4, 11] of the same molecule?
A: 66%

Q: And the “LV mass (echocardiogram)” value [4, 16]?
A: 233 gram

Q: What about the “LVEF (echocardiogram)” value [4, 16] of the same molecule?
A: 67%

Q: For “Ghrelin (GSSFLSPEHQRVQQRKESKKPPAKLQPR; ends and bridges not checked; UniProt Q9UBU3 24-51, looked up) [a gut-derived 28-amino acid peptide hormone]”, which “Change in muscle mass” value [7, 17] is on record?
A: no change

Q: What about the “Increase in muscle strength” value [7, 17] of the same molecule?
A: 2%

Q: What about the Increase in steps/day [7, 17] of the same molecule?
A: 40%

Q: What about the Adverse event [7, 18] of the same molecule?
A: hospitalized for atrial fibrillation, which was an AE deemed unrelated to ghrelin

Q: And the “Patient comment about using ghrelin” value [7, 18]?
A: Feel more active

Q: What about the Adverse event [7, 19] of the same molecule?
A: increase in tumor pain, an AE deemed unrelated to ghrelin

Q: What about the “Patient opinion about using ghrelin” value [7, 19] of the same molecule?
A: This is the first therapy which improves my well-being

Q: And the Survival [7, 19]?
A: 62 days

Q: What about the “Decrease in muscle mass” value ([7]; Case C: advanced mesothelioma, FOLFIRI, pre-study vs post-study) of the same molecule?
A: 3%

Q: What about the “Change in muscle mass” value [7, 20] of the same molecule?
A: no change

Q: What about the “Increase in muscle strength” value [7, 20] of the same molecule?
A: 6%

Q: And the Increase in steps/day [7, 20]?
A: 63%
